In US20100267561A1, “HERBICIDAL PYRIDAZINONE DERIVATIVES” (priority 2007, published 2010):

Legend:
Format in all cases: in vivo
[1] = system: umbrella sedge (Cyperus difformis); test: Test B flooded paddy test plant response
In short: (§1)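 Compounds were added directly to paddy water over 2-leaf-stage plants in pots flooded 3 cm above soil, water depth maintained. Visual injury scored against controls after 13 to 15 days in greenhouse, 0 (none) to 100 (complete control); dash indicates no result.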

[2] = system: ducksalad (Heteranthera limosa); test: Test B flooded paddy test plant response
In short: as §1

[3] = system: rice (Oryza sativa); test: Test B flooded paddy test plant response
In short: as §1

[4] = system: winter barley (Hordeum vulgare); test: Test C pre-/postemergence plant response
In short: (§2)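 Pre/post spray; solvent blend non-phytotoxic, with surfactant; post stage 1–4 leaves (2–18 cm); controlled environment 15–25 d; visual score 0–100 relative to controls, 100 = complete control.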

[5] = system: wild oat (Avena fatua); test: Test C pre-/postemergence plant response
In short: as §2

[6] = system: pigweed (Amaranthus retroflexus); test: Test C pre-/postemergence plant response
In short: as §2

[7] = system: annual bluegrass (Poa annua); test: Test C pre-/postemergence plant response
In short: as §2

[8] = system: winter wheat (Triticum aestivum); test: Test C pre-/postemergence plant response
In short: as §2

[9] = system: spring wheat (Triticum aestivum); test: Test C pre-/postemergence plant response
In short: as §2

[10] = system: wild mustard (Sinapis arvensis); test: Test C pre-/postemergence plant response
In short: as §2

[11] = system: spring barley (Hordeum vulgare); test: Test C pre-/postemergence plant response
In short: as §2

[12] = system: downy bromegrass (Bromus tectorum); test: Test C pre-/postemergence plant response
In short: as §2

[13] = system: blackgrass (Alopecurus myosuroides); test: Test C pre-/postemergence plant response
In short: as §2

[14] = system: canarygrass (Phalaris minor); test: Test C pre-/postemergence plant response; conditions: Preemergence
In short: as §2

[15] = system: windgrass (Apera spica-venti); test: Test C pre-/postemergence plant response
In short: as §2

[16] = system: green foxtail (Setaria viridis); test: Test C pre-/postemergence plant response
In short: as §2

[17] = system: Italian ryegrass (Lolium multiflorum); test: Test C pre-/postemergence plant response
In short: as §2

[18] = Flood (flooded paddy test), 62 g ai/ha, scale 0 to 100, 0 no effect, 100 complete control
[19] = Flood (flooded paddy test), 125 g ai/ha, scale 0 to 100, 0 no effect, 100 complete control
[20] = Flood (flooded paddy test), 250 g ai/ha, scale 0 to 100, 0 no effect, 100 complete control
[21] = Flood, 31 g ai/ha, scale 0 to 100
[22] = Postemergence, 8 g ai/ha, scale 0 to 100, 0 no effect, 100 complete control
[23] = Postemergence, 16 g ai/ha, scale 0 to 100, 0 no effect, 100 complete control
[24] = Postemergence, 31 g ai/ha, scale 0 to 100, 0 no effect, 100 complete control
[25] = Postemergence, 62 g ai/ha, scale 0 to 100, 0 no effect, 100 complete control
[26] = Preemergence, 8 g ai/ha, scale 0 to 100 (0 no effect, 100 complete control)
[27] = Preemergence, 16 g ai/ha, scale 0 to 100 (0 no effect, 100 complete control)
[28] = Preemergence, 31 g ai/ha, scale 0 to 100 (0 no effect, 100 complete control)
[29] = Preemergence, 62 g ai/ha, scale 0 to 100, 0 no effect, 100 complete control

CCc1cc(-c2ccc(C(F)(F)F)cc2)nn1-c1c(OS(C)(=O)=O)cnn(C)c1=O [Compound 19]
75: Plant response rating, Barley, Winter [4, 28] | Plant response rating, Pigweed [6, 29] | Plant response rating, Wheat, Spring [9, 29] | Plant response rating, Bromegrass, Downy [12, 28] | Plant response rating, Blackgrass [13, 22]
40: Plant response rating, Barley, Winter [4, 27] | Plant response rating, Wheat, Spring [9, 27] | Plant response rating, Bromegrass, Downy [12, 22]
65: Plant response rating, Oat, Wild [5, 26] | Plant response rating, Oat, Wild [5, 27] | Plant response rating, Barley, Spring [11, 27] | Plant response rating, Barley, Spring [11, 28] | Plant response rating, Bromegrass, Downy [12, 23] | Plant response rating, Bromegrass, Downy [12, 27] | Plant response rating, Canarygrass ([14]; 8 g ai/ha, scale 0 to 100 (0 no effect, 100 complete control))
80: Plant response rating, Barley, Winter [4, 29] | Plant response rating, Oat, Wild [5, 28] | Plant response rating, Wheat, Winter [8, 23] | Plant response rating, Wheat, Spring [9, 23] | Plant response rating, Barley, Spring [11, 29] | Plant response rating, Blackgrass [13, 26] | Plant response rating, Windgrass [15, 22] | Plant response rating, Ryegrass, Italian [17, 26]
90: Plant response rating, Wheat, Winter [8, 24] | Plant response rating, Wheat, Winter [8, 29] | Plant response rating, Wheat, Spring [9, 24] | Plant response rating, Barley, Spring [11, 23] | Plant response rating, Canarygrass ([14]; 16 g ai/ha, scale 0 to 100 (0 no effect, 100 complete control))
70: Plant response rating, Sedge, Umbrella [1, 20] | Plant response rating, Rice [3, 20] | Plant response rating, Wheat, Spring [9, 22]
20: Plant response rating, Rice [3, 18] | Plant response rating, Barley, Winter [4, 22] | Plant response rating, Barley, Winter [4, 26] | Plant response rating, Wheat, Winter [8, 22] | Plant response rating, Mustard, Wild [10, 23] | Plant response rating, Mustard, Wild [10, 24] | Plant response rating, Mustard, Wild [10, 25] | Plant response rating, Barley, Spring [11, 22] | Plant response rating, Foxtail, Green [16, 26]
25: Plant response rating, Ducksalad [2, 20] | Plant response rating, Bluegrass [7, 24]
0: Plant response rating, Sedge, Umbrella [1, 21] | Plant response rating, Ducksalad [2, 18] | Plant response rating, Ducksalad [2, 19] | Plant response rating, Ducksalad [2, 21] | Plant response rating, Rice [3, 21] | Plant response rating, Pigweed [6, 22] | Plant response rating, Pigweed [6, 23] | Plant response rating, Pigweed [6, 24] | Plant response rating, Pigweed [6, 25] | Plant response rating, Pigweed [6, 26] | Plant response rating, Bluegrass [7, 22] | Plant response rating, Bluegrass [7, 23] | Plant response rating, Bluegrass [7, 27] | Plant response rating, Wheat, Spring [9, 26] | Plant response rating, Mustard, Wild [10, 22] | Plant response rating, Mustard, Wild [10, 26] | Plant response rating, Mustard, Wild [10, 27] | Plant response rating, Mustard, Wild [10, 28] | Plant response rating, Mustard, Wild [10, 29]
10: Plant response rating, Wheat, Winter [8, 26]
98: Plant response rating, Bromegrass, Downy [12, 24] | Plant response rating, Canarygrass ([14]; 31 g ai/ha, scale 0 to 100 (0 no effect, 100 complete control))
95: Plant response rating, Oat, Wild [5, 29] | Plant response rating, Bromegrass, Downy [12, 29] | Plant response rating, Foxtail, Green [16, 22]
60: Plant response rating, Sedge, Umbrella [1, 19] | Plant response rating, Rice [3, 19] | Plant response rating, Wheat, Winter [8, 28] | Plant response rating, Wheat, Spring [9, 28] | Plant response rating, Ryegrass, Italian [17, 22]
30: Plant response rating, Sedge, Umbrella [1, 18] | Plant response rating, Pigweed [6, 27] | Plant response rating, Bromegrass, Downy [12, 26]
100: Plant response rating, Barley, Winter [4, 24] | Plant response rating, Barley, Winter [4, 25] | Plant response rating, Oat, Wild [5, 22] | Plant response rating, Oat, Wild [5, 23] | Plant response rating, Oat, Wild [5, 24] | Plant response rating, Oat, Wild [5, 25] | Plant response rating, Wheat, Winter [8, 25] | Plant response rating, Wheat, Spring [9, 25] | Plant response rating, Barley, Spring [11, 24] | Plant response rating, Barley, Spring [11, 25] | Plant response rating, Bromegrass, Downy [12, 25] | Plant response rating, Blackgrass [13, 23] | Plant response rating, Blackgrass [13, 24] | Plant response rating, Blackgrass [13, 25] | Plant response rating, Blackgrass [13, 27] | Plant response rating, Blackgrass [13, 28] | Plant response rating, Blackgrass [13, 29] | Plant response rating, Canarygrass ([14]; 62 g ai/ha, scale 0 to 100, 0 no effect, 100 complete control) | Plant response rating, Windgrass [15, 23] | Plant response rating, Windgrass [15, 24] | Plant response rating, Windgrass [15, 25] | Plant response rating, Windgrass [15, 26] | Plant response rating, Windgrass [15, 27] | Plant response rating, Windgrass [15, 28] | Plant response rating, Windgrass [15, 29] | Plant response rating, Foxtail, Green [16, 23] | Plant response rating, Foxtail, Green [16, 24] | Plant response rating, Foxtail, Green [16, 25] | Plant response rating, Foxtail, Green [16, 27] | Plant response rating, Foxtail, Green [16, 28] | Plant response rating, Foxtail, Green [16, 29] | Plant response rating, Ryegrass, Italian [17, 23] | Plant response rating, Ryegrass, Italian [17, 24] | Plant response rating, Ryegrass, Italian [17, 25] | Plant response rating, Ryegrass, Italian [17, 27] | Plant response rating, Ryegrass, Italian [17, 28] | Plant response rating, Ryegrass, Italian [17, 29]
35: Plant response rating, Bluegrass [7, 25]
50: Plant response rating, Barley, Winter [4, 23] | Plant response rating, Pigweed [6, 28] | Plant response rating, Wheat, Winter [8, 27] | Plant response rating, Barley, Spring [11, 26]
